# Reference: ChEMBL document CHEMBL3862012, “Methylene versus carbonyl bridge in the structure of new tubulin polymerization inhibitors with tricyclic A-rings” (Bioorg Med Chem, 2016)
# Assay: Cytotoxicity against human Caki1 cells assessed as growth inhibition after 48 hrs by SRB assay
# Format: functional
# Settings: CAKI-1, 48 h
row,SMILES,GI50 [nM]
1,COc1ccc(CN2c3ccccc3CCc3ccccc32)cc1F,549

# Assay: Cytotoxicity against human K562 cells assessed as growth inhibition at 10 uM after 48 hrs by SRB assay relative to control
# Format: functional
# Settings: K562, 48 h, read-out: GI
row,SMILES,inhibition of growth at 10 µM [%]
1,COc1ccc(CN2c3ccccc3CCc3ccccc32)cc1F,94

# Assay: Cytotoxicity against human OVCAR5 cells assessed as growth inhibition after 48 hrs by SRB assay
# Format: functional
# Settings: OVCAR-5, 48 h
row,SMILES,GI50 [nM]
1,COc1ccc(CN2c3ccccc3CCc3ccccc32)cc1F,1900

# Assay: Cytotoxicity against human SF268 cells assessed as growth inhibition after 48 hrs by SRB assay
# Format: functional
# Settings: SF-268, 48 h
row,SMILES,GI50 [nM]
1,COc1ccc(CN2c3ccccc3CCc3ccccc32)cc1F,660

# Assay: Cytotoxicity against human LOXIMVI cells assessed as growth inhibition at 10 uM after 48 hrs by SRB assay relative to control
# Format: functional
# Settings: LOX IMVI, read-out: GI
row,SMILES,inhibition of growth at 10 µM [%]
1,COc1ccc(CN2c3ccccc3CCc3ccccc32)cc1F,50

# Assay: Cytotoxicity against human HCT116 cells assessed as growth inhibition after 48 hrs by SRB assay
# Format: functional
# Settings: HCT-116, 48 h
row,SMILES,GI50 [nM]
1,COc1ccc(CN2c3ccccc3CCc3ccccc32)cc1F,413

# Assay: Cytotoxicity against human RPMI8226 cells assessed as growth inhibition at 10 uM after 48 hrs by SRB assay relative to control
# Format: functional
# Settings: RPMI-8226, 48 h, read-out: GI
row,SMILES,inhibition of growth at 10 µM [%]
1,COc1ccc(CN2c3ccccc3CCc3ccccc32)cc1F,91

# Assay: Cytotoxicity against human OVCAR4 cells assessed as growth inhibition at 10 uM after 48 hrs by SRB assay relative to control
# Format: functional
# Settings: OVCAR-4, 48 h, read-out: GI
row,SMILES,inhibition of growth at 10 µM [%]
1,COc1ccc(CN2c3ccccc3CCc3ccccc32)cc1F,58

# Assay: Cytotoxicity against human RXF393 cells assessed as growth inhibition after 48 hrs by SRB assay
# Format: functional
# Settings: RXF 393, 48 h
row,SMILES,GI50 [nM]
1,COc1ccc(CN2c3ccccc3CCc3ccccc32)cc1F,312

# Assay: Cytotoxicity against human SF268 cells assessed as growth inhibition at 10 uM after 48 hrs by SRB assay relative to control
# Format: functional
# Settings: SF-268, 48 h, read-out: GI
row,SMILES,inhibition of growth at 10 µM [%]
1,COc1ccc(CN2c3ccccc3CCc3ccccc32)cc1F,61

# Assay: Cytotoxicity against human SF539 cells assessed as growth inhibition after 48 hrs by SRB assay
# Format: functional
# Settings: SF-539, 48 h
row,SMILES,GI50 [nM]
1,COc1ccc(CN2c3ccccc3CCc3ccccc32)cc1F,287

# Assay: Cytotoxicity against human MCF7 cells assessed as growth inhibition after 48 hrs by SRB assay
# Format: functional
# Settings: MCF7, 48 h
row,SMILES,GI50 [nM]
1,COc1ccc(CN2c3ccccc3CCc3ccccc32)cc1F,352

# Assay: Cytotoxicity against human Hs 578T cells assessed as growth inhibition at 10 uM after 48 hrs by SRB assay relative to control
# Format: functional
# Settings: read-out: GI
row,SMILES,inhibition of growth at 10 µM [%]
1,COc1ccc(CN2c3ccccc3CCc3ccccc32)cc1F,70

# Assay: Cytotoxicity against human ACHN cells assessed as growth inhibition at 10 uM after 48 hrs by SRB assay relative to control
# Format: functional
# Settings: read-out: GI
row,SMILES,inhibition of growth at 10 µM [%]
1,COc1ccc(CN2c3ccccc3CCc3ccccc32)cc1F,64

# Assay: Cytotoxicity against human HCT15 cells assessed as growth inhibition after 48 hrs by SRB assay
# Format: functional
# Settings: HCT-15, 48 h
row,SMILES,GI50 [nM]
1,COc1ccc(CN2c3ccccc3CCc3ccccc32)cc1F,428

# Assay: Cytotoxicity against human COLO205 cells assessed as growth inhibition at 10 uM after 48 hrs by SRB assay relative to control
# Format: functional
# Settings: COLO 205, 48 h, read-out: GI
row,SMILES,inhibition of growth at 10 µM [%]
1,COc1ccc(CN2c3ccccc3CCc3ccccc32)cc1F,100

# Assay: Cytotoxicity against human MDA-MB-435 cells assessed as growth inhibition after 48 hrs by SRB assay
# Format: functional
# Settings: MDA-MB-435, 48 h
row,SMILES,GI50 [nM]
1,COc1ccc(CN2c3ccccc3CCc3ccccc32)cc1F,187

# Assay: Cytotoxicity against human UACC62 cells assessed as growth inhibition at 10 uM after 48 hrs by SRB assay relative to control
# Format: functional
# Settings: UACC-62, 48 h, read-out: GI
row,SMILES,inhibition of growth at 10 µM [%]
1,COc1ccc(CN2c3ccccc3CCc3ccccc32)cc1F,75

# Assay: Cytotoxicity against human SNB19 cells assessed as growth inhibition at 10 uM after 48 hrs by SRB assay relative to control
# Format: functional
# Settings: SNB-19, 48 h, read-out: GI
row,SMILES,inhibition of growth at 10 µM [%]
1,COc1ccc(CN2c3ccccc3CCc3ccccc32)cc1F,61

# Assay: Cytotoxicity against human UACC257 cells assessed as growth inhibition at 10 uM after 48 hrs by SRB assay relative to control
# Format: functional
# Settings: UACC-257, 48 h, read-out: GI
row,SMILES,inhibition of growth at 10 µM [%]
1,COc1ccc(CN2c3ccccc3CCc3ccccc32)cc1F,38

# Assay: Cytotoxicity against human M14 cells assessed as growth inhibition after 48 hrs by SRB assay
# Format: functional
# Settings: M14, 48 h
row,SMILES,GI50 [nM]
1,COc1ccc(CN2c3ccccc3CCc3ccccc32)cc1F,354

# Assay: Cytotoxicity against human IGROV1 cells assessed as growth inhibition after 48 hrs by SRB assay
# Format: functional
# Settings: IGROV-1, 48 h
row,SMILES,GI50 [nM]
1,COc1ccc(CN2c3ccccc3CCc3ccccc32)cc1F,1570

# Assay: Cytotoxicity against human HOP92 cells assessed as growth inhibition after 48 hrs by SRB assay
# Format: functional
# Settings: HOP-92, 48 h
row,SMILES,GI50 [nM]
1,COc1ccc(CN2c3ccccc3CCc3ccccc32)cc1F,587

# Assay: Cytotoxicity against human SK-MEL-2 cells assessed as growth inhibition at 10 uM after 48 hrs by SRB assay relative to control
# Format: functional
# Settings: SK-MEL-2, 48 h, read-out: GI
row,SMILES,inhibition of growth at 10 µM [%]
1,COc1ccc(CN2c3ccccc3CCc3ccccc32)cc1F,73

# Assay: Cytotoxicity against human SK-MEL-5 cells assessed as growth inhibition after 48 hrs by SRB assay
# Format: functional
# Settings: SK-MEL-5, 48 h
row,SMILES,GI50 [nM]
1,COc1ccc(CN2c3ccccc3CCc3ccccc32)cc1F,522

# Assay: Cytotoxicity against human DU145 cells assessed as growth inhibition after 48 hrs by SRB assay
# Format: functional
# Settings: DU-145, 48 h
row,SMILES,GI50 [nM]
1,COc1ccc(CN2c3ccccc3CCc3ccccc32)cc1F,481

# Assay: Cytotoxicity against human HCT15 cells assessed as growth inhibition at 10 uM after 48 hrs by SRB assay relative to control
# Format: functional
# Settings: HCT-15, 48 h, read-out: GI
row,SMILES,inhibition of growth at 10 µM [%]
1,COc1ccc(CN2c3ccccc3CCc3ccccc32)cc1F,75

# Assay: Cytotoxicity against human COLO205 cells assessed as growth inhibition after 48 hrs by SRB assay
# Format: functional
# Settings: COLO 205, 48 h
row,SMILES,GI50 [nM]
1,COc1ccc(CN2c3ccccc3CCc3ccccc32)cc1F,335

# Assay: Cytotoxicity against human SNB75 cells assessed as growth inhibition after 48 hrs by SRB assay
# Format: functional
# Settings: SNB-75, 48 h
row,SMILES,GI50 [nM]
1,COc1ccc(CN2c3ccccc3CCc3ccccc32)cc1F,277

# Assay: Cytotoxicity against human OVCAR3 cells assessed as growth inhibition after 48 hrs by SRB assay
# Format: functional
# Settings: OVCAR-3, 48 h
row,SMILES,GI50 [nM]
1,COc1ccc(CN2c3ccccc3CCc3ccccc32)cc1F,285

# Assay: Cytotoxicity against human SW620 cells assessed as growth inhibition at 10 uM after 48 hrs by SRB assay relative to control
# Format: functional
# Settings: SW-620, 48 h, read-out: GI
row,SMILES,inhibition of growth at 10 µM [%]
1,COc1ccc(CN2c3ccccc3CCc3ccccc32)cc1F,79

# Assay: Cytotoxicity against human IGROV1 cells assessed as growth inhibition at 10 uM after 48 hrs by SRB assay relative to control
# Format: functional
# Settings: IGROV-1, 48 h, read-out: GI
row,SMILES,inhibition of growth at 10 µM [%]
1,COc1ccc(CN2c3ccccc3CCc3ccccc32)cc1F,48

# Assay: Cytotoxicity against human OVCAR5 cells assessed as growth inhibition at 10 uM after 48 hrs by SRB assay relative to control
# Format: functional
# Settings: OVCAR-5, 48 h, read-out: GI
row,SMILES,inhibition of growth at 10 µM [%]
1,COc1ccc(CN2c3ccccc3CCc3ccccc32)cc1F,59

# Assay: Cytotoxicity against human SK-MEL-28 cells assessed as growth inhibition after 48 hrs by SRB assay
# Format: functional
# Settings: SK-MEL-28, 48 h
row,SMILES,GI50 [nM]
1,COc1ccc(CN2c3ccccc3CCc3ccccc32)cc1F,820

# Assay: Cytotoxicity against human SW620 cells assessed as growth inhibition after 48 hrs by SRB assay
# Format: functional
# Settings: SW-620, 48 h
row,SMILES,GI50 [nM]
1,COc1ccc(CN2c3ccccc3CCc3ccccc32)cc1F,386

# Assay: Cytotoxicity against human NCI-H460 cells assessed as growth inhibition after 48 hrs by SRB assay
# Format: functional
# Settings: NCI-H460, 48 h
row,SMILES,GI50 [nM]
1,COc1ccc(CN2c3ccccc3CCc3ccccc32)cc1F,419

# Assay: Cytotoxicity against human SKOV3 cells assessed as growth inhibition after 48 hrs by SRB assay
# Format: functional
# Settings: SK-OV-3, 48 h
row,SMILES,GI50 [nM]
1,COc1ccc(CN2c3ccccc3CCc3ccccc32)cc1F,471

# Assay: Cytotoxicity against human HT-29 cells assessed as growth inhibition at 10 uM after 48 hrs by SRB assay relative to control
# Format: functional
# Settings: HT-29, 48 h, read-out: GI
row,SMILES,inhibition of growth at 10 µM [%]
1,COc1ccc(CN2c3ccccc3CCc3ccccc32)cc1F,98

# Assay: Cytotoxicity against human NCI-H522 cells assessed as growth inhibition at 10 uM after 48 hrs by SRB assay relative to control
# Format: functional
# Settings: NCI-H522, 48 h, read-out: GI
row,SMILES,inhibition of growth at 10 µM [%]
1,COc1ccc(CN2c3ccccc3CCc3ccccc32)cc1F,100

# Assay: Cytotoxicity against human 786-0 cells assessed as growth inhibition after 48 hrs by SRB assay
# Format: functional
# Settings: 786-0, 48 h
row,SMILES,GI50 [nM]
1,COc1ccc(CN2c3ccccc3CCc3ccccc32)cc1F,572
